Assays:
SW620 = assay: Inhibition of cells growth by colorimetric assay (SRB), SW620; type: cell-based
In short: (§1)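 Growth inhibition is measured by sulforhodamine B staining of TCA-fixed cells after 48 h of compound exposure across 10 to 10^−8 μg/ml. Cells are seeded at 5×10^3 per well and grown drug-free for 18 h beforehand; absorbance at 490 nm yields GI, TGI and LC values.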

DU-145 = assay: Inhibition of cells growth by colorimetric assay (SRB), DU-145; type: cell-based
In short: as §1

MDA-MB-231 = assay: Inhibition of cells growth by colorimetric assay (SRB), MDA-MB-231; type: cell-based
In short: as §1

SK-MEL-28 = assay: Inhibition of cells growth by colorimetric assay (SRB), SK-MEL-28; type: cell-based
In short: as §1

A-498 = assay: Inhibition of cells growth by colorimetric assay (SRB), A-498; type: cell-based
In short: as §1

tumor cell culture = assay: Bioassays for antitumor screening, cell line not given; type: cell-based; conditions: cell line not stated
Source text: Bioassays for Antitumor Screening
The finality of these assays is to interrupt the growth of a “in vitro” tumor cell culture by means a continued exhibition of the cells to the sample to be testing.

A-549 = assay: Inhibition of cells growth by colorimetric assay (SRB), A-549; type: cell-based
In short: as §1

HT-29 = assay: Inhibition of cells growth by colorimetric assay (SRB), HT-29; type: cell-based
In short: as §1

MCF-7 = assay: Inhibition of cells growth by colorimetric assay (SRB), MCF-7; type: cell-based
In short: as §1

Source text for Heart: (§2) Toxicity was asssessed by the methods reported in Toxicology in Vitro, 15 (2001) 571-577, J. Luber Narod et al.: “Evaluation of the use of in vitro methodolodies as tools for screening new compounds for potential in vivo toxicity”.
Source text for Kidney: as §2
Source text for Liver: as §2
Source text for Myelo: as §2
Source text for Skeletal: as §2

Structure (SMILES): COc1cc2c(cc1OC(=O)OC(C)(C)C)CCN[C@]21CS[C@@H]2c3c(OC(=O)OC(C)(C)C)c(C)c4c(c3[C@H](COC1=O)N1C2[C@H]2c3c(cc(C)c(OC)c3OC(=O)OC(C)(C)C)C[C@@H]([C@@H]1O)N2C)OCO4 (stereo partly drawn) [Compound 174]
- Toxicity Data Kidney (Kidney): 1.24E-08
- Toxicity Data Heart (Heart): 2.76E-08
- LC50 (SW620; Homo sapiens, SW-620, 48 h, read-out: SW-620 LC50): 686 nM
- GI50 (SW620; Homo sapiens, SW-620, SRB assay, 48 hours exposure, read-out: SW-620 GI50): 0.98 nM
- SW-620 TGI (SW620; SRB assay, 48 hours exposure): 6.86E-09
- GI50 (DU-145; Homo sapiens, DU-145, 48 h, SRB assay, 48 hours exposure, read-out: DU-145 GI50): 0.294 nM
- CC50 (DU-145; Homo sapiens, DU-145, 48 h, read-out: DU-145 LC50, SRB assay, 48 hours exposure): 3.92 nM
- DU-145 TGI (DU-145; SRB assay, 48 hours exposure): 9.80E-10
- CC50 (MDA-MB-231; Homo sapiens, MDA-MB-231, 48 h, read-out: MB-231 LC50): 98 nM
- GI50 (MDA-MB-231; Homo sapiens, MDA-MB-231, SRB assay, 48 hours exposure, read-out: MB-231 GI50): 0.98 nM
- MB-231 TGI (MDA-MB-231; SRB assay, 48 hours exposure): 5.88E-09
- GI50 (SK-MEL-28; Homo sapiens, SK-MEL-28, 48 h, SRB assay, 48 hours exposure, read-out: MEL-28 GI50): 1.96 nM
- CC50 (SK-MEL-28; Homo sapiens, SK-MEL-28, 48 h, read-out: MEL-28 LC50, SRB assay, 48 hours exposure): 9.8 nM
- MEL-28 TGI (SK-MEL-28; SRB assay, 48 hours exposure): 4.90E-09
- LC50 (A-498; Homo sapiens, A498, 48 h, read-out: A-498 LC50): 9.8 nM
- GI50 (A-498; Homo sapiens, A498, SRB assay, 48 hours exposure, read-out: A-498 GI50): 1.96 nM
- A-498 TGI (A-498; SRB assay, 48 hours exposure): 3.92E-09
- Toxicity Data Skeletal (Skeletal): 9.80E-07
- antitumor activity (in words) (tumor cell culture): very active (E-10)
- Toxicity Data Liver (Liver): 1.34E-08
- Toxicity Data Myelo (Myelo): 7.27E-08
- GI50 (A-549; Homo sapiens, A549, 48 h, SRB assay, 48 hours exposure, read-out: A-549 GI50): 0.98 nM
- LC50 (concentration for 50% cell killing) (A-549; Homo sapiens, A549, 48 h, read-out: A-549 LC50, SRB assay, 48 hours exposure): 9.8 nM
- A-549 TGI (A-549; SRB assay, 48 hours exposure): 2.94E-09
- GI50 (HT-29; Homo sapiens, HT-29, 48 h, SRB assay, 48 hours exposure, read-out: HT-29 GI50): 1.96 nM
- LC50 (concentration for 50% cell killing) (HT-29; Homo sapiens, HT-29, 48 h, read-out: HT-29 LC50, SRB assay, 48 hours exposure): 9.8 nM
- HT-29 TGI (HT-29; SRB assay, 48 hours exposure): 6.86E-09
- GI50 (MCF-7; Homo sapiens, MCF7, 48 h, read-out: MCF GI50): 3.92 nM
- CC50 (MCF-7; Homo sapiens, MCF7, 48 h, read-out: MCF LC50): 88.2 nM
- MCF TGI (MCF-7; SRB assay, 48 hours exposure): 1.96E-08
